Laboratory results taken from patent publication US9198433B2, “Substituted benzene fungicides” (E I DU PONT DE NEMOURS AND COMPANY, priority 2007, dated 2015).
Read-outs that look alike come from different tables or passages of the source. Marks after values point to notes of the source that are not given here.

How the values were obtained:
Format in all cases: in vivo
[1] = tested on: Erysiphe graminis f. sp. tritici; assay: Test A: wheat powdery mildew, preventive spray on wheat seedlings, disease rating
In short: (§1)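 Compounds in acetone/water (50/50) with 250 ppm Trem 014 surfactant, sprayed to run-off on wheat seedlings as a preventive treatment before disease rating. Tested at 200 ppm (equivalent to 500 g/ha) unless marked for 40 ppm or 50 ppm.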

[2] = tested on: Puccinia recondita f. sp. tritici; assay: Test B: wheat leaf rust, preventive spray on wheat seedlings, disease rating
In short: as §1

Septoria nodorum = assay: Test C: wheat glume blotch, preventive spray on wheat seedlings, disease rating
In short: as §1

Septoria tritici = assay: Test D: wheat leaf blotch, preventive spray on wheat seedlings, disease rating
In short: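 Wheat seedlings sprayed to run-off with compound in acetone/water containing 250 ppm Trem 014 (200 ppm ≈ 500 g/ha; some results at 40 or 50 ppm), inoculated next day with Septoria tritici spores. Held 48 h saturated at 24 °C, then 19 days at 20 °C before disease rating.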

Fusarium graminearum = conditions: wheat head scab
Botrytis cinerea = assay: Test F: tomato Botrytis, preventive spray on tomato seedlings, disease rating; conditions: 200 ppm
In short: (§2)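 Tomato seedlings sprayed to run-off, as a preventive treatment, with compound suspended in acetone/water (50/50) containing 250 ppm Trem 014 surfactant; 200 ppm equals 500 g/ha. Disease then rated. Values are at 200 ppm unless marked * (40 ppm) or ** (50 ppm).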

Alternaria solani = assay: Test H: tomato early blight, preventive spray on tomato seedlings, disease rating
In short: as §2

Rhizoctonia oryzae = assay: Test I: turf brown patch, preventive spray on creeping bent grass seedlings, disease rating; conditions: 200 ppm
Source text: The test compounds were first dissolved in acetone in an amount equal to 3% of the final volume and then suspended at the desired concentration (in ppm) in acetone and purified water (50/50 mix) containing 250 ppm of the surfactant Trem® 014 (polyhydric alcohol esters). The resulting test suspensions were then used in Tests A-L. Spraying a 200 ppm test suspension to the point of run-off on the test plants was the equivalent of an application rate of 500 g/ha. The test suspension was sprayed to the point of run-off on creeping bent grass seedlings. […] A dash (-) indicates no test results. All results are for 200 ppm except where followed by an “*”, which indicates 40 ppm or “**”, which indicates 50 ppm.

Phytophthora infestans = conditions: 200 ppm; tomato late blight
Plasmopara viticola = assay: Test K: grape downy mildew, spray on grape seedlings after inoculation, disease rating
Source text: The test compounds were first dissolved in acetone in an amount equal to 3% of the final volume and then suspended at the desired concentration (in ppm) in acetone and purified water (50/50 mix) containing 250 ppm of the surfactant Trem® 014 (polyhydric alcohol esters). The resulting test suspensions were then used in Tests A-L. Spraying a 200 ppm test suspension to the point of run-off on the test plants was the equivalent of an application rate of 500 g/ha. Grape seedlings were inoculated with a spore suspension of Plasmopara viticola (the causal agent of grape downy mildew) and incubated in a saturated atmosphere at 20° C. for 24 h. After a short drying period, the test suspension was sprayed to the point of run-off on the grape seedlings and then moved to a growth chamber at 20° C. for 6 days, after which the test units were placed back into a saturated atmosphere at 20° C. for 24 h. Upon removal, disease ratings were made. […] A dash (-) indicates no test results. All results are for 200 ppm except where followed by an “*”, which indicates 40 ppm or “**”, which indicates 50 ppm.

Pythium aphanidermatum = assay: Test L: bluegrass pythium blight, preventive spray on bluegrass seedlings, disease rating
Source text: The test compounds were first dissolved in acetone in an amount equal to 3% of the final volume and then suspended at the desired concentration (in ppm) in acetone and purified water (50/50 mix) containing 250 ppm of the surfactant Trem® 014 (polyhydric alcohol esters). The resulting test suspensions were then used in Tests A-L. Spraying a 200 ppm test suspension to the point of run-off on the test plants was the equivalent of an application rate of 500 g/ha. The test suspension was sprayed to the point of run-off on bluegrass seedlings. […] A dash (-) indicates no test results. All results are for 200 ppm except where followed by an “*”, which indicates 40 ppm or “**”, which indicates 50 ppm.

| SMILES | Percentage Disease Control, Test A ([1]; 200 ppm) [%] | Percentage Disease Control, Test B ([2]; 200 ppm) [%] | Percentage Disease Control, Test C (Septoria nodorum; 200 ppm) [%] | Percentage Disease Control, Test D (Septoria tritici; 40 ppm (*)) | Percentage Disease Control, Test E (Fusarium graminearum; 200 ppm) [%] | Percentage Disease Control, Test F (Botrytis cinerea) [%] | Percentage Disease Control, Test H (Alternaria solani; 200 ppm) [%] | Percentage Disease Control, Test I (Rhizoctonia oryzae) [%] | Percentage Disease Control, Test J (Phytophthora infestans) [%] | Percentage Disease Control, Test K (Plasmopara viticola; 200 ppm) [%] | Percentage Disease Control, Test L (Pythium aphanidermatum; 200 ppm) [%] | Percentage Disease Control, Test A ([1]; 40 ppm (*)) | Percentage Disease Control, Test B ([2]; 40 ppm (*)) | Percentage Disease Control, Test C (Septoria nodorum; 40 ppm (*)) | Percentage Disease Control, Test E (Fusarium graminearum; 40 ppm (*)) | Percentage Disease Control, Test H (Alternaria solani; 40 ppm (*)) | Percentage Disease Control, Test K (Plasmopara viticola; 40 ppm (*)) | Percentage Disease Control, Test L (Pythium aphanidermatum; 40 ppm (*)) | Percentage Disease Control, Test D (Septoria tritici; 200 ppm) [%] |
| --- | --- | --- | --- | --- | --- | --- | --- | --- | --- | --- | --- | --- | --- | --- | --- | --- | --- | --- | --- |
| COC(=O)NCc1cc(C(C)=NOC[Si](C)(C)c2ccc(Cl)cc2)ccc1Cl [Compound 5] | 99 | 100 | 99 | 100* % | 0 | 0 | 77 | 0 | 0 | 23 | 0 |  |  |  |  |  |  |  |  |
| COC(=O)NOc1cc(-c2cccc(OC(F)(F)F)c2)ccc1Cl [Cmpd 18] |  |  |  | 98* % | 100 | 0 | 70 | 0 | 89 | 81 | 98 | 100* % | 99* % | 99* % |  |  |  |  |  |
| COC(=O)NCc1cc(-c2ccn(-c3ccccc3)n2)ccc1Cl [Cmpd 34] |  |  |  | 100* % |  | 0 |  | 0 | 0 | 78 | 0 | 97* % | 100* % | 97* % | 98* % | 90* % |  |  |  |
| COC(=O)NCc1cc(C(C)=NOCC[Si](C)(C)C)ccc1Cl [Compound 1, methyl N-[[2-chloro-5-[1-[[2-(trimethylsilyl)ethoxy]imino]ethyl]phenyl]-methyl]carbamate] | 100 | 100 | 100 | 100* % | 100 | 0 | 0 | 0 | 0 | 66 | 0 |  |  |  |  |  |  |  |  |
| COC(=O)NCc1cc(-c2ccn(CCC[Si](C)(C)C)n2)ccc1Cl [Cmpd 23] |  |  |  | 98* % | 99 | 0 | 0 | 0 | 91 |  |  | 99* % | 100* % | 100* % |  |  | 99* % | 93* % |  |
| COC(=O)NCc1cc(-c2ccn(Cc3cnc(Cl)s3)n2)ccc1Cl [Cmpd 25] | 91 | 96 | 78 |  | 77 | 37 | 76 | 0 | 0 | 63 | 0 |  |  |  |  |  |  |  | 96 |
| COC(=O)NCc1cc(-c2ccn(C)n2)ccc1Cl [Cmpd 28] | 54 | 88 | 0 |  | 0 | 0 | 28 | 0 | 0 | 25 | 0 |  |  |  |  |  |  |  | 86 |
| CC[Si](C)(C)Cn1ccc(-c2ccc(Cl)c(CNC(=O)OC)c2)n1 [Cmpd 27] | 96 |  |  | 96* % | 93 | 0 | 0 | 0 | 0 | 76 | 0 |  | 99* % | 94* % |  |  |  |  |  |
| COC(=O)NCc1cc(-c2ccn(CC#N)n2)ccc1Cl [Cmpd 26] | 0 | 73 | 0 |  | 0 | 0 | 0 | 0 | 60 | 6 | 0 |  |  |  |  |  |  |  | 26 |
| COC(=O)NCc1cc(-c2ccn(CCC(C)C)n2)ccc1Cl [Cmpd 22] |  |  | 99 | 85* % | 99 | 0 | 0 | 0 | 50 | 99 |  | 99* % | 95* % |  |  |  |  | 94* % |  |
